# In patent US20040029965A1, “Formulations for reducing or eliminating toxicity of enviromental hormones containing ursodeoxycholic acid” (priority 2000, published 2004):
# Tested on: C57B1/6J mice
# Test: Organ weights (liver, kidneys, testes, epididymides) of mice after a single subcutaneous injection of TCDD
# Assay type: in vivo
# Procedure: Male C57B1/6J mice of 5 weeks old having the average weight of 18-22 g which had been bred in CRJ (Charles River in Japan) were purchased and used in this example as experimental animals. Those mice were acclimated under the constant breeding condition, i.e. the temperature of 24±1° C., the humidity of 60±10% and the light and darkness cycle of 12 hours, for one week and thereafter, utilized in the experiment.
# 2,3,7,8-tetrachlorodibenzo-p-dioxin (TCDD) dissolved in toluene (purity of 95% or more as a result of gas chromatography analysis), manufactured by Chem. Services Inc. in USA, was volatilized with nitrogen to obtain powder. The obtained powder was dissolved in a mixed solvent containing acetone and corn oil with a volume ratio of 1:6. The resulting solution each containing 110, 27.5 and 6.9 μg/kg of TCDD was subcutaneously injected to mice at a volume of 5 ml per body weight. […] The mice were supplied with the feed from 10 days before (pre-administration) to 60 days after administration of TCDD (post-administration).
# Upon completion of the experiment for 60 days, the experimental animals were fasted for 24 hours and anesthetized with ether. Then, they were abdominally incised and blood was gathered from abdominal vena cava. They were sacrificed by the release of blood. Liver, kidneys, testes and epididymides were extracted and all the extracted organs were weighed. Only the testes were separately kept and observed under optical and electron microscopes. For biochemical finding test, serum was separated from blood with a centrifuge and the separated serum was analyzed with an automated blood biochemical analyzer, Dimension (Dupont, USA). Blood was put to another blood gathering bottle and then, analyzed with an automated blood cell analyzer, Celldyn (Abbott, USA).
# The results are expressed as Mean±Standard Deviation values. For statistical analysis of the body weight, feed and water uptake, biochemical findings, hematological findings and the weight of organ in an acute toxicity test, verification was performed by one way analysis of variance (ANOVA) in case of equal distribution. In case significance was recognized in ANOVA, the Student's t-test was performed in the levels of p<0.05 and p<0.01.
# The organs, i.e. liver, kidneys, testes and epididymides, were weighed and the results are shown in the following.
compound,measurement,setting,value
"Clc1cc2c(cc1Cl)Oc1cc(Cl)c(Cl)cc1O2 [TCDD, 2,3,7,8-tetrachlorodibenzo-p-dioxin]",Left epididymis Relative weight,TCDD 6.9 μg/kg alone,0.101 ± 0.012%
same,Left epididymis Weight,TCDD 6.9 μg/kg alone,0.023 ± 0.005 g
same,Left kidney Relative weight,TCDD 6.9 μg/kg alone,0.508 ± 0.050%
same,Left kidney Weight,TCDD 6.9 μg/kg alone,0.115 ± 0.018 g
same,Left testis Relative weight,TCDD 6.9 μg/kg alone,0.296 ± 0.030%
same,Left testis Weight,TCDD 6.9 μg/kg alone,0.067 ± 0.011 g
same,Liver Relative weight,TCDD 6.9 μg/kg alone,4.092%
same,Liver Weight,TCDD 6.9 μg/kg alone,0.935 ± 0.173 g
same,Right epididymis Relative weight,TCDD 6.9 μg/kg alone,0.110 ± 0.027%
same,Right epididymis Weight,TCDD 6.9 μg/kg alone,0.025 ± 0.007 g
same,Right kidney Relative weight,TCDD 6.9 μg/kg alone,0.513 ± 0.066%
same,Right kidney Weight,TCDD 6.9 μg/kg alone,0.117 ± 0.022 g
same,Right testis Relative weight,TCDD 6.9 μg/kg alone,0.285 ± 0.035%
same,Right testis Weight,TCDD 6.9 μg/kg alone,0.65 ± 0.010 g
same,Left epididymis Relative weight,TCDD 27.5 μg/kg alone,0.124 ± 0.024 %
same,Left epididymis Weight,TCDD 27.5 μg/kg alone,0.021 ± 0.006 g
same,Left kidney Relative weight,TCDD 27.5 μg/kg alone,0.625 ± 0.037 %
same,Left kidney Weight,TCDD 27.5 μg/kg alone,0.101 ± 0.012 g
same,Left testis Relative weight,TCDD 27.5 μg/kg alone,0.356 ± 0.051 %
same,Left testis Weight,TCDD 27.5 μg/kg alone,0.058 ± 0.014 g
same,Liver Relative weight,TCDD 27.5 μg/kg alone,4.506%
same,Liver Weight,TCDD 27.5 μg/kg alone,0.734 ± 0.151 g
same,Right epididymis Relative weight,TCDD 27.5 μg/kg alone,0.129 ± 0.027 %
same,Right epididymis Weight,TCDD 27.5 μg/kg alone,0.021 ± 0.006 g
same,Right kidney Relative weight,TCDD 27.5 μg/kg alone,0.571 ± 0.030 %
same,Right kidney Weight,TCDD 27.5 μg/kg alone,0.092 ± 0.012 g
same,Right testis Relative weight,TCDD 27.5 μg/kg alone,0.352 ± 0.059 %
same,Right testis Weight,TCDD 27.5 μg/kg alone,0.058 ± 0.015 g
